How the values were obtained:
Assay type in all cases: in vivo
[1] = test system: PTZ-induced clonic seizures; assay: PTZ85 assay, latency of clonic seizures; conditions: 1800 micromoles, male cd1/cr mice
Method: SCMET (PTZ85) Assay. Male CD1/CR mice weighing from 25-35 g are administrated test compounds (range of 5 doses) 15 minutes prior to PTZ. PTZ is administrated subcutaneously, just caudal to the cranium, at a dose of 85 mg/kg. Animals are then caged individually and observed for 15 minutes. The occurrence and latency to clonic and/or tonic convulsions are recorded. The mice are used once. Ten mice are used in each dose group. […] ED50 is determined from a graph of percentage protection vs log(dose) following the known method of Litchfield^18, where percentage protection refers to the percent of animals in each dose group which are protected against seizures. The compounds of interest were tested at an equivalent dose of 1800 micromoles on male cd1/cr mice using the PTZ85 Assay to induce clonic (repetitive seizures). Both the latency (time of seizure onset) and the number of animals protected increased with the size of the ring, or with increased lipophilicity.

[2] = test system: Subcutaneous Methylene Tetrazole (SCMET) seizures; assay: Subcutaneous methylene tetrazole (SCMET) test, rats, oral, time to peak effect
[3] = test system: Maximal Electroshock (MES) seizures; assay: Maximal electroshock (MES) test, rats, oral, time to peak effect; conditions: for Anticonvulsant potency compared with VPA (in words): summary of Table 2
Method: Anticonvulsant testing was conducted at the antiepileptic screening facility of the National Institute for Neurological Disorders and Stroke in Rockville, Md. Initial tests were done in mice (i.p.) followed by oral and i.p. administration to rats. Neurotoxicity was evaluated with the rotarod test. Maximal electroshock (MES) and subcutaneous methylene tetrazole (SCMET) or pentylene tetrazole (PTZ) were the most common tests performed. Typical procedures are described below. MES Assay. Male CD1/CR mice weighing from 25-35 g are administrated test compounds 15 minutes prior to MES. Mice are challenged by pulsed electrical stimulation (50 mA, 0.4 s duration, pulse width 0.5 ms, 60 pulses/sec) via corneal electrodes to induce seizure. Mice are observed post-stimulation for the onset of tonic seizures, and considered to have a tonic seizure only if there is a prolonged extension (>90° from plane of body) of the hind legs. […] Ten mice are used in each group. A number of VPA analogues and their sodium salts were tested for their efficacy as anticonvulsants and for their toxicity using the MES Assay and rotarod test.

[4] = test system: rotarod test (neurotoxicity); assay: Rotarod neurotoxicity test (TOX), rats, oral
Method: Anticonvulsant testing was conducted at the antiepileptic screening facility of the National Institute for Neurological Disorders and Stroke in Rockville, Md. Initial tests were done in mice (i.p.) followed by oral and i.p. administration to rats. Neurotoxicity was evaluated with the rotarod test. Maximal electroshock (MES) and subcutaneous methylene tetrazole (SCMET) or pentylene tetrazole (PTZ) were the most common tests performed. Typical procedures are described below.
Rotorod Test. Acute drug induced neurotoxicity is detected in mice using the standard rotorod test. An untreated mouse, when placed on a 6 rpm rotation rod, can maintain its equilibrium for a prolonged period of time.
A number of VPA analogues and their sodium salts were tested for their efficacy as anticonvulsants and for their toxicity using the MES Assay and rotarod test. In particular, the following compounds (as shown in the structures below) were tested: 332059U (sodium salt of VPA), 325071 (known compound, tested for comparison), 325073A (metabolite of VPA), 332060U (4,4-difluoro-2-propylpentanoate, fluorinated analogue of VPA), 341031, and 341032U (conjugated (E,Z)-2,3′-diene VPA analogues).

O=C([O-])/C=C/C=C1CCCCCCC1.[Na+]
Latency of Clonic Seizures [1]: 855 s | Number of Mice Protected Against Clonic Seizures (Out of 10) [1]: 9

O=C([O-])/C=C/C=C1CCCCCC1.[Na+]
Latency of Clonic Seizures [1]: 778 s | Number of Mice Protected Against Clonic Seizures (Out of 10) [1]: 7

O=C([O-])/C=C/C=C1CCCCC1.[Na+]
Latency of Clonic Seizures [1]: 661 s | Number of Mice Protected Against Clonic Seizures (Out of 10) [1]: 4

O=C([O-])/C=C/C=C1CCCC1.[Na+]
Latency of Clonic Seizures [1]: 589 s | Number of Mice Protected Against Clonic Seizures (Out of 10) [1]: 2

C/C=C\C(=C/C)C(=O)[O-].[Na+] [325071A, Sodium (2E,3Z)-2-ethylidenpent-3-enoate]
SCMET N/F = number of animals protected relative to number tested ([2]; 80 mg/kg, 0.25 h): 0/4 | SCMET N/F = number of animals protected relative to number tested ([2]; 80 mg/kg, 0.5 h): 0/4 | SCMET N/F = number of animals protected relative to number tested ([2]; 80 mg/kg, 1.0 h): 1/4 | SCMET N/F = number of animals protected relative to number tested ([2]; 80 mg/kg, 2.0 h): 0/4 | SCMET N/F = number of animals protected relative to number tested ([2]; 80 mg/kg, 4.0 h): 0/4 | SCMET N/F = number of animals protected relative to number tested ([2]; 200 mg/kg, 0.25 h): 2/4 | SCMET N/F = number of animals protected relative to number tested ([2]; 200 mg/kg, 0.5 h): 0/4 | SCMET N/F = number of animals protected relative to number tested ([2]; 200 mg/kg, 1.0 h): 0/4 | SCMET N/F = number of animals protected relative to number tested ([2]; 200 mg/kg, 2.0 h): 1/4 | SCMET N/F = number of animals protected relative to number tested ([2]; 200 mg/kg, 4.0 h): 1/4 | MES N/F = number of animals protected relative to number tested ([3]; 80 mg/kg, 0.25 h): 0/4 | MES N/F = number of animals protected relative to number tested ([3]; 80 mg/kg, 0.5 h): 0/4 | MES N/F = number of animals protected relative to number tested ([3]; 80 mg/kg, 1.0 h): 0/4 | MES N/F = number of animals protected relative to number tested ([3]; 80 mg/kg, 2.0 h): 0/4 | MES N/F = number of animals protected relative to number tested ([3]; 80 mg/kg, 4.0 h): 0/4 | MES N/F = number of animals protected relative to number tested ([3]; 200 mg/kg, 0.25 h): 0/4 | MES N/F = number of animals protected relative to number tested ([3]; 200 mg/kg, 0.5 h): 1/4 | MES N/F = number of animals protected relative to number tested ([3]; 200 mg/kg, 1.0 h): 0/4 | MES N/F = number of animals protected relative to number tested ([3]; 200 mg/kg, 2.0 h): 1/4 | MES N/F = number of animals protected relative to number tested ([3]; 200 mg/kg, 4.0 h): 0/4 | TOX: N/F = number of animals that failed the rotarod test to numbers tested ([4]; 200 mg/kg, 0.25 h): 0/8 | TOX: N/F = number of animals that failed the rotarod test to numbers tested ([4]; 200 mg/kg, 0.5 h): 0/8 | TOX: N/F = number of animals that failed the rotarod test to numbers tested ([4]; 200 mg/kg, 1.0 h): 0/8 | TOX: N/F = number of animals that failed the rotarod test to numbers tested ([4]; 200 mg/kg, 2.0 h): 0/8 | TOX: N/F = number of animals that failed the rotarod test to numbers tested ([4]; 200 mg/kg, 4.0 h): 0/4

CCCC(CC(C)(F)F)C(=O)[O-].[Na+] (centres unmarked) [332060U, Sodium 4,4-difluoro-2-propylpentanoate]
SCMET N/F = number of animals protected relative to number tested ([2]; 100 mg/kg, 0.25 h): 1/4 | SCMET N/F = number of animals protected relative to number tested ([2]; 100 mg/kg, 0.5 h): 1/4 | SCMET N/F = number of animals protected relative to number tested ([2]; 100 mg/kg, 1.0 h): 0/4 | SCMET N/F = number of animals protected relative to number tested ([2]; 100 mg/kg, 2.0 h): 0/4 | SCMET N/F = number of animals protected relative to number tested ([2]; 100 mg/kg, 4.0 h): 0/4 | SCMET N/F = number of animals protected relative to number tested ([2]; 200 mg/kg, 0.25 h): 1/4 | SCMET N/F = number of animals protected relative to number tested ([2]; 200 mg/kg, 0.5 h): 1/4 | SCMET N/F = number of animals protected relative to number tested ([2]; 360 mg/kg, 0.25 h): 3/4 | SCMET N/F = number of animals protected relative to number tested ([2]; 360 mg/kg, 0.5 h): 0/4 | SCMET N/F = number of animals protected relative to number tested ([2]; 360 mg/kg, 1.0 h): 2/4 | SCMET N/F = number of animals protected relative to number tested ([2]; 360 mg/kg, 2.0 h): 1/4 | SCMET N/F = number of animals protected relative to number tested ([2]; 360 mg/kg, 4.0 h): 0/4 | Anticonvulsant efficacy in relation to neurotoxicity (in words) ([2]; summary of Table 2): effective at doses that do not demonstrate neurotoxicity | TOX: N/F = number of animals that failed the rotarod test to numbers tested ([4]; 100 mg/kg, 0.25 h): 0/4 | TOX: N/F = number of animals that failed the rotarod test to numbers tested ([4]; 100 mg/kg, 0.5 h): 0/4 | TOX: N/F = number of animals that failed the rotarod test to numbers tested ([4]; 100 mg/kg, 1.0 h): 0/4 | TOX: N/F = number of animals that failed the rotarod test to numbers tested ([4]; 100 mg/kg, 2.0 h): 0/4 | TOX: N/F = number of animals that failed the rotarod test to numbers tested ([4]; 100 mg/kg, 4.0 h): 0/4 | TOX: N/F = number of animals that failed the rotarod test to numbers tested ([4]; 200 mg/kg, 0.25 h): 0/4 | TOX: N/F = number of animals that failed the rotarod test to numbers tested ([4]; 200 mg/kg, 0.5 h): 0/4 | TOX: N/F = number of animals that failed the rotarod test to numbers tested ([4]; 360 mg/kg, 0.25 h): 0/4 | TOX: N/F = number of animals that failed the rotarod test to numbers tested ([4]; 360 mg/kg, 0.5 h): 0/4 | TOX: N/F = number of animals that failed the rotarod test to numbers tested ([4]; 360 mg/kg, 1.0 h): 0/4 | TOX: N/F = number of animals that failed the rotarod test to numbers tested ([4]; 360 mg/kg, 2.0 h): 0/4 | TOX: N/F = number of animals that failed the rotarod test to numbers tested ([4]; 360 mg/kg, 4.0 h): 0/4

C/C=C\C(=C/C(C)C)C(=O)[O-].[Na+] [341031U, Sodium (2E)-4-methyl-2-[(1Z)-prop-1-en-1-yl]pent-2-enoate]
MES N/F = number of animals protected relative to number tested ([3]; 200 mg/kg, 0.25 h): 3/4 | MES N/F = number of animals protected relative to number tested ([3]; 200 mg/kg, 0.5 h): 2/4 | MES N/F = number of animals protected relative to number tested ([3]; 200 mg/kg, 1.0 h): 0/4 | MES N/F = number of animals protected relative to number tested ([3]; 200 mg/kg, 2.0 h): 0/4 | MES N/F = number of animals protected relative to number tested ([3]; 200 mg/kg, 4.0 h): 0/4 | Anticonvulsant potency compared with VPA (in words) [3]: more potent than VPA | TOX: N/F = number of animals that failed the rotarod test to numbers tested ([4]; 200 mg/kg, 0.25 h): 0/4 | TOX: N/F = number of animals that failed the rotarod test to numbers tested ([4]; 200 mg/kg, 0.5 h): 0/4 | TOX: N/F = number of animals that failed the rotarod test to numbers tested ([4]; 200 mg/kg, 1.0 h): 0/4 | TOX: N/F = number of animals that failed the rotarod test to numbers tested ([4]; 200 mg/kg, 2.0 h): 0/4 | TOX: N/F = number of animals that failed the rotarod test to numbers tested ([4]; 200 mg/kg, 4.0 h): 0/4

CC/C=C(\C=C(C)C)C(=O)[O-].[Na+] [341032U, Sodium (2E)-2-(2-methylprop-1-en-1-yl)pent-2-enoate]
MES N/F = number of animals protected relative to number tested ([3]; 200 mg/kg, 0.25 h): 4/4 | MES N/F = number of animals protected relative to number tested ([3]; 200 mg/kg, 0.5 h): 3/4 | MES N/F = number of animals protected relative to number tested ([3]; 200 mg/kg, 1.0 h): 1/4 | MES N/F = number of animals protected relative to number tested ([3]; 200 mg/kg, 2.0 h): 0/4 | MES N/F = number of animals protected relative to number tested ([3]; 200 mg/kg, 4.0 h): 0/4 | Anticonvulsant potency compared with VPA (in words) [3]: more potent than VPA | TOX: N/F = number of animals that failed the rotarod test to numbers tested ([4]; 200 mg/kg, 0.25 h): 3/4 | TOX: N/F = number of animals that failed the rotarod test to numbers tested ([4]; 200 mg/kg, 0.5 h): 4/4 | TOX: N/F = number of animals that failed the rotarod test to numbers tested ([4]; 200 mg/kg, 1.0 h): 1/4 | TOX: N/F = number of animals that failed the rotarod test to numbers tested ([4]; 200 mg/kg, 2.0 h): 0/4 | TOX: N/F = number of animals that failed the rotarod test to numbers tested ([4]; 200 mg/kg, 4.0 h): 0/4

From US20060223888A1, “Valproic acid analogues and pharmaceutical composition thereof” (priority 2002, published 2006)
